Test results as given in ChEMBL document CHEMBL1177794, “Broad spectrum alkynyl inhibitors of T315I Bcr-Abl” (Bioorg Med Chem Lett, 2010).

Experiments:
[1] = biological target: cAMP-dependent protein kinase catalytic subunit PRKX (Homo sapiens) (UniProt P51817); assay: Inhibition of PRKX at 10 uM
[2] = biological target: Non-receptor tyrosine-protein kinase TYK2 (Homo sapiens) (UniProt P29597); assay: Inhibition of TYK2 JH2 pseudokinase domain at 10 uM; details: values are per cent of control
[3] = biological target: Serine/threonine-protein kinase PLK4 (Homo sapiens) (UniProt O00444); assay: Inhibition of PLK4 at 10 uM
Sequence of Serine/threonine-protein kinase PLK4 (Homo sapiens) (O00444 whole entry): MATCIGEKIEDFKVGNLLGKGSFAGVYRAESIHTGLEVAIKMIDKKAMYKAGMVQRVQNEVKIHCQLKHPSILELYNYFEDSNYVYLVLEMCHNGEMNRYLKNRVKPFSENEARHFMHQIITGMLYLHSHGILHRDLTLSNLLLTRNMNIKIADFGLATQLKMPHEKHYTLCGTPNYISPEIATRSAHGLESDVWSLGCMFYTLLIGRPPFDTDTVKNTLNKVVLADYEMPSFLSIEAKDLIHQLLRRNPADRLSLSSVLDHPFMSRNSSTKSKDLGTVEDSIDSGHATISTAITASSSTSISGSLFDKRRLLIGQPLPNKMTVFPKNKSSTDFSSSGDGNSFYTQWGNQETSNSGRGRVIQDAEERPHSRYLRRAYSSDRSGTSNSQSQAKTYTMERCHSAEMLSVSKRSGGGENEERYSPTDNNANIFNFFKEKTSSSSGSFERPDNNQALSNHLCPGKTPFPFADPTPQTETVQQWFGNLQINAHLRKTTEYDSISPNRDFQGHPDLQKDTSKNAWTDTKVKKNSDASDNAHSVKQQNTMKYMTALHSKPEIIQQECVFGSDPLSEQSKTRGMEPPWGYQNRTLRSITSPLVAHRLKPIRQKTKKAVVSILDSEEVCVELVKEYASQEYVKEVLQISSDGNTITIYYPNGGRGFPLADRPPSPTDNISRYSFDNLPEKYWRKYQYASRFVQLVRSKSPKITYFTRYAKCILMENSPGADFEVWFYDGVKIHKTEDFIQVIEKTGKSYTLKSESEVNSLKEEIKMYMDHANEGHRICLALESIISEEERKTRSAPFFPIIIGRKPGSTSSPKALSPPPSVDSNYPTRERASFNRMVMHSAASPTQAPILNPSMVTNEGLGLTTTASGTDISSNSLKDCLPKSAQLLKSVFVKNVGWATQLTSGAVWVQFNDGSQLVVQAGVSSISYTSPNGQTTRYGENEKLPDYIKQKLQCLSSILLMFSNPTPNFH

[4] = biological target: Cyclin-dependent kinase-like 5 (Homo sapiens) (UniProt O76039); assay: Inhibition of CDKL5 at 10 uM; details: values are per cent of control
[5] = biological target: Platelet-derived growth factor receptor alpha (Homo sapiens) (UniProt P16234); assay: Inhibition of PDGFRA at 10 uM; details: values are per cent of control
Sequence of Platelet-derived growth factor receptor alpha (Homo sapiens) (P16234 whole entry): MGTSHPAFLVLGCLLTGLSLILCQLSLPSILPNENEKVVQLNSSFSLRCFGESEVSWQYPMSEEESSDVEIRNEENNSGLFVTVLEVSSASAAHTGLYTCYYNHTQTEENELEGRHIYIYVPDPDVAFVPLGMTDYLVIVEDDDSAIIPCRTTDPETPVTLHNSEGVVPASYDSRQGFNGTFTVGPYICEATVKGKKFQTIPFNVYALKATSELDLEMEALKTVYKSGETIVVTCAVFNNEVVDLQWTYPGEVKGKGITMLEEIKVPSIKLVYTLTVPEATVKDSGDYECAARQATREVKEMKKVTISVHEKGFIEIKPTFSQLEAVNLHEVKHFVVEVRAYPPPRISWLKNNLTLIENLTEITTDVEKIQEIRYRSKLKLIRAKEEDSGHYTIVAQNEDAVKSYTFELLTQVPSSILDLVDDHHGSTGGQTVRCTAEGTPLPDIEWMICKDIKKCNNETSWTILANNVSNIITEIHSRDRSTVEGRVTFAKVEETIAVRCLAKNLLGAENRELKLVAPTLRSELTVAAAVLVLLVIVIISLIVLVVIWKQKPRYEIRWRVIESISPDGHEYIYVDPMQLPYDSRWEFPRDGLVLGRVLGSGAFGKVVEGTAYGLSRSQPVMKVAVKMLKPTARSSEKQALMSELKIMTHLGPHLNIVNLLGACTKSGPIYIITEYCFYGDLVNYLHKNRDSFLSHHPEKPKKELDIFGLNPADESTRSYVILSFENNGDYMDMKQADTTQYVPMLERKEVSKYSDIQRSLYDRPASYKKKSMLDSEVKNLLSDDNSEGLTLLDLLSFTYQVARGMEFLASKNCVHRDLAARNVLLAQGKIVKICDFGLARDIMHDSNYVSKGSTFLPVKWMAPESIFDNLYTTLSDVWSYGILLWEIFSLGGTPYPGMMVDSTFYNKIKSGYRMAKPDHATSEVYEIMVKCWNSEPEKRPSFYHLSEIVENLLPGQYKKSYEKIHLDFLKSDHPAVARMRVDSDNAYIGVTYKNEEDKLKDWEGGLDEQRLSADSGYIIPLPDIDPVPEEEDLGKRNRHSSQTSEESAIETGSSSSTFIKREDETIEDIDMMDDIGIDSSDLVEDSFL

[6] = biological target: Tyrosine-protein kinase Tec (Homo sapiens) (UniProt P42680); assay: Inhibition of TEC at 10 uM; values are per cent of control
Sequence of Tyrosine-protein kinase Tec (Homo sapiens) (P42680 whole entry): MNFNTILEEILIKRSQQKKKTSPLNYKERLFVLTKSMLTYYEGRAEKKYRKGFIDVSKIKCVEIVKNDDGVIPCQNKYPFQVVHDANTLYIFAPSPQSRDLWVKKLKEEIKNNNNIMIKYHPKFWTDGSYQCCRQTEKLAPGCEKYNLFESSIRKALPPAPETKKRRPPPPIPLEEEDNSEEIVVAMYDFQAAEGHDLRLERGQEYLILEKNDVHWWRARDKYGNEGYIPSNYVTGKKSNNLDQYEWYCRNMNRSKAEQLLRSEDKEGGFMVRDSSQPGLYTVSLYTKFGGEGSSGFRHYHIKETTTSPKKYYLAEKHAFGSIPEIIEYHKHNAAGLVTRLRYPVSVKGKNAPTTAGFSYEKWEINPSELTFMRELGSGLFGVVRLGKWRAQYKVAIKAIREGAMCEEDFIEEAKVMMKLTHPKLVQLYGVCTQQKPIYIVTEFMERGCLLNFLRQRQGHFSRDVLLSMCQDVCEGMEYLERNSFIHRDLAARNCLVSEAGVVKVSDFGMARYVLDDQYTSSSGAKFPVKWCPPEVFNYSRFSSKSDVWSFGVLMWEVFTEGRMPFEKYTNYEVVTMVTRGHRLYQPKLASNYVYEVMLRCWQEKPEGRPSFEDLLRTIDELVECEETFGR

[7] = biological target: Ephrin type-B receptor 4 (Homo sapiens) (UniProt P54760); assay: Inhibition of EPHB4 at 10 uM; details: values are per cent of control
[8] = biological target: Casein kinase I isoform alpha-like (Homo sapiens) (UniProt Q8N752); assay: Inhibition of CSNK1A1L at 10 uM; details: values are per cent of control
[9] = biological target: Serine/threonine-protein kinase B-raf (Homo sapiens) (UniProt P15056); assay: Inhibition of BRAF at 10 uM; details: values are per cent of control
[10] = biological target: LIM domain kinase 2 (Homo sapiens) (UniProt P53671); assay: Inhibition of LIMK2 at 10 uM; details: values are per cent of control
Sequence of LIM domain kinase 2 (Homo sapiens) (P53671 whole entry, looked up, the tested form may be a part): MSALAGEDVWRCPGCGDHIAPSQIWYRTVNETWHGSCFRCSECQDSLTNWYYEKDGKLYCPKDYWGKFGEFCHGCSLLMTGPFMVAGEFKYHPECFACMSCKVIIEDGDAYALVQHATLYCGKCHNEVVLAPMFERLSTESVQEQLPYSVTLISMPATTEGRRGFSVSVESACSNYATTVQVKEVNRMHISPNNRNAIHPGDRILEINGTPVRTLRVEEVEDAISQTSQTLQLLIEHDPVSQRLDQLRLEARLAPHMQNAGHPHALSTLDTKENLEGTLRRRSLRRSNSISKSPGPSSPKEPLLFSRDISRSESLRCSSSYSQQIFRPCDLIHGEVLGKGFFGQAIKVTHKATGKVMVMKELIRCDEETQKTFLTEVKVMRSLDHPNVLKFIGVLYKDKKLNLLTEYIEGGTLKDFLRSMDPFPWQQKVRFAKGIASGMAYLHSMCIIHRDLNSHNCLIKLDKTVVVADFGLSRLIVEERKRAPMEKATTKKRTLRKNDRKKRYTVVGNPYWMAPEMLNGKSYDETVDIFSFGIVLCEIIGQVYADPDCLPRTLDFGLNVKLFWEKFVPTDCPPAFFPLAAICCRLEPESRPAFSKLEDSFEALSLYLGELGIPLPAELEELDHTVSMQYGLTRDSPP

[11] = biological target: Vascular endothelial growth factor receptor 3 (Homo sapiens) (UniProt P35916); assay: Inhibition of FLT4 at 10 uM; details: values are per cent of control
[12] = biological target: Macrophage-stimulating protein receptor (Homo sapiens) (UniProt Q04912); assay: Inhibition of MST1R at 10 uM
[13] = biological target: Cyclin-dependent kinase 4/cyclin D1 (Homo sapiens) (UniProt P11802+P24385); assay: Inhibition of CDK4/cyclin D1 at 10 uM; values are per cent of control
[14] = biological target: BMP-2-inducible protein kinase (Homo sapiens) (UniProt Q9NSY1); assay: Inhibition of BIKE at 10 uM; details: values are per cent of control
Sequence of BMP-2-inducible protein kinase (Homo sapiens) (Q9NSY1 whole entry, looked up): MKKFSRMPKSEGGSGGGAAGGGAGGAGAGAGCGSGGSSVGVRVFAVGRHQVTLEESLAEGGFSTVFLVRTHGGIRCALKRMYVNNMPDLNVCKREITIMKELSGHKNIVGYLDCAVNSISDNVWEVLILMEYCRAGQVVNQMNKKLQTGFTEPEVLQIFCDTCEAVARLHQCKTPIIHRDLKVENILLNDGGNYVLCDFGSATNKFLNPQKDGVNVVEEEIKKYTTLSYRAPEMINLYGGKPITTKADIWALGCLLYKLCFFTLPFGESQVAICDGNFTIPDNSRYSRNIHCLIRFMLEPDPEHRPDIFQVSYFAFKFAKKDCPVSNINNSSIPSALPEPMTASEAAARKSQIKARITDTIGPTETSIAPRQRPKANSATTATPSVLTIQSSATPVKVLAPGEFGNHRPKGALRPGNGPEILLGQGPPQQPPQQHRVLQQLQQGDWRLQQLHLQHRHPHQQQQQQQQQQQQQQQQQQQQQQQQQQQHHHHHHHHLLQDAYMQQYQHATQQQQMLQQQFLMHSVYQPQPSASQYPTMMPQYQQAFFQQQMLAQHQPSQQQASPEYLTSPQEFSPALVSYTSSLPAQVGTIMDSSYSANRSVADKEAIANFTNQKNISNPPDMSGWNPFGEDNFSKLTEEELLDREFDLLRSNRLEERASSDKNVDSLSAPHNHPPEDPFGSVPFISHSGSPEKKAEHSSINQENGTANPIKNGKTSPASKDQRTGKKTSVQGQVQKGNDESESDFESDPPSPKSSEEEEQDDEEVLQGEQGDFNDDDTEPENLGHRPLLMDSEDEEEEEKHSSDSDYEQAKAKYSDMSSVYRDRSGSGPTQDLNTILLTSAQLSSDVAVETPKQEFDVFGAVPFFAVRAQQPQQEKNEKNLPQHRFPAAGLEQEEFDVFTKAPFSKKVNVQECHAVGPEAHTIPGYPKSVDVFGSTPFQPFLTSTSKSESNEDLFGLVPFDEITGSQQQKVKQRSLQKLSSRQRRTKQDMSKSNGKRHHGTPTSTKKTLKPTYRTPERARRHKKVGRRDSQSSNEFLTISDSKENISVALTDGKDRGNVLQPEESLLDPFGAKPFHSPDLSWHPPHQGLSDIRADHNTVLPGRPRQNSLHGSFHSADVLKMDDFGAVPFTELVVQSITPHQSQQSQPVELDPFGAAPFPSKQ

[15] = biological target: Tyrosine-protein kinase Srms (Homo sapiens) (UniProt Q9H3Y6); assay: Inhibition of SRMS at 10 uM
[16] = biological target: Ephrin type-B receptor 6 (Homo sapiens) (UniProt O15197); assay: Inhibition of EPHB6 at 10 uM; details: values are per cent of control
[17] = biological target: Serine/threonine-protein kinase 26 (Homo sapiens) (UniProt Q9P289); assay: Inhibition of MST4 at 10 uM
[18] = biological target: Serine/threonine-protein kinase 16 (Homo sapiens) (UniProt O75716); assay: Inhibition of STK16 at 10 uM
[19] = biological target: Serine/threonine-protein kinase 36 (Homo sapiens) (UniProt Q9NRP7); assay: Inhibition of STK36 at 10 uM
[20] = tested on: Phosphatidylinositol 4,5-bisphosphate 3-kinase catalytic subunit alpha isoform (Homo sapiens), P42336 [C420R]; assay: Inhibition of PIK3CA C420R mutant at 10 uM
[21] = biological target: Serine/threonine-protein kinase 32A (Homo sapiens) (UniProt Q8WU08); assay: Inhibition of YANK1 at 10 uM; details: values are per cent of control
[22] = biological target: Serine/threonine-protein kinase D1 (Homo sapiens) (UniProt Q15139); assay: Inhibition of PRKD1 at 10 uM
[23] = biological target: Phosphorylase b kinase gamma catalytic chain, liver/testis isoform (Homo sapiens) (UniProt P15735); assay: Inhibition of PHKG2 at 10 uM
[24] = tested on: Tyrosine-protein kinase ABL1 (Homo sapiens), P00519 [F317L]; assay: Inhibition of non phosphorylated ABL1 F317L mutant at 10 uM; details: values are per cent of control
[25] = biological target: Serine/threonine-protein kinase pim-3 (Homo sapiens) (UniProt Q86V86); assay: Inhibition of PIM3 at 10 uM
[26] = biological target: AP2-associated protein kinase 1 (Homo sapiens) (UniProt Q2M2I8); assay: Inhibition of AAK1 at 10 uM; details: values are per cent of control
[27] = biological target: STE20/SPS1-related proline-alanine-rich protein kinase (Homo sapiens) (UniProt Q9UEW8); assay: Inhibition of STK39 at 10 uM
[28] = tested on: Receptor-type tyrosine-protein kinase FLT3 (Homo sapiens), P36888 [D835Y]; assay: Inhibition of FLT3 D835Y mutant at 10 uM; details: values are per cent of control
[29] = biological target: Protein-tyrosine kinase 2-beta (Homo sapiens) (UniProt Q14289); assay: Inhibition of PYK2 at 10 uM; details: values are per cent of control
[30] = biological target: Serine/threonine-protein kinase 35 (Homo sapiens) (UniProt Q8TDR2); assay: Inhibition of STK35 at 10 uM
[31] = biological target: Serine/threonine-protein kinase SIK3 (Homo sapiens) (UniProt Q9Y2K2); assay: Inhibition of QSK at 10 uM
[32] = biological target: Inhibitor of nuclear factor kappa-B kinase subunit alpha (Homo sapiens) (UniProt O15111); assay: Inhibition of IKK-alpha at 10 uM; details: values are per cent of control
[33] = biological target: Serine/threonine-protein kinase MRCK beta (Homo sapiens) (UniProt Q9Y5S2); assay: Inhibition of MRCKB at 10 uM
[34] = tested on: Epidermal growth factor receptor (Homo sapiens), P00533 [UNDEFINED MUTATION]; assay: Inhibition of EGFR L747-S752del, P753S mutant at 10 uM; values are per cent of control
[35] = biological target: Serine/threonine-protein kinase RIO1 (Homo sapiens) (UniProt Q9BRS2); assay: Inhibition of RIOK1 at 10 uM
Sequence of Serine/threonine-protein kinase RIO1 (Homo sapiens) (Q9BRS2 whole entry): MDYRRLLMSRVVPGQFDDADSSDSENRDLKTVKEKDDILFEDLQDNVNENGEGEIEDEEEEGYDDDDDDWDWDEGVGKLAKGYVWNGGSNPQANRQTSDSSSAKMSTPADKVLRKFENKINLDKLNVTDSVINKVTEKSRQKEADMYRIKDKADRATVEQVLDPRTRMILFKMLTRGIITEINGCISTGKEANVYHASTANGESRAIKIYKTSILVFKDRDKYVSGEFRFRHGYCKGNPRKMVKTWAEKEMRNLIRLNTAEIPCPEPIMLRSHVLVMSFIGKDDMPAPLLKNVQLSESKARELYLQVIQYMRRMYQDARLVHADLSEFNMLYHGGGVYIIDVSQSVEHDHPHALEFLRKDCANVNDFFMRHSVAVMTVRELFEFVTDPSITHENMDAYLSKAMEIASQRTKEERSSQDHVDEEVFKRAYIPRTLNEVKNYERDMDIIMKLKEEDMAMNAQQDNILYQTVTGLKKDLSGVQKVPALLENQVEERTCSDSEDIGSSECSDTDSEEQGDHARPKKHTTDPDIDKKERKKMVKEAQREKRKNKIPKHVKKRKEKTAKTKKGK

[36] = biological target: Maternal embryonic leucine zipper kinase (Homo sapiens) (UniProt Q14680); assay: Inhibition of MELK at 10 uM; details: values are per cent of control
[37] = tested on: Tyrosine-protein kinase ABL1 (Homo sapiens), P00519 [H396P]; assay: Inhibition of phosphorylated ABL1 H396P mutant at 10 uM; details: values are per cent of control
[38] = biological target: Focal adhesion kinase 1 (Homo sapiens) (UniProt Q05397); assay: Inhibition of FAK at 10 uM; details: values are per cent of control
[39] = biological target: Mitogen-activated protein kinase kinase kinase kinase 4 (Homo sapiens) (UniProt O95819); assay: Inhibition of MAP4K4 at 10 uM; details: values are per cent of control
[40] = biological target: Cyclin-G-associated kinase (Homo sapiens) (UniProt O14976); assay: Inhibition of GAK at 10 uM; details: values are per cent of control
[41] = biological target: Mitogen-activated protein kinase kinase kinase 15 (Homo sapiens) (UniProt Q6ZN16); assay: Inhibition of MAP3K15 at 10 uM; details: values are per cent of control
[42] = biological target: Aurora kinase A (Homo sapiens) (UniProt O14965); assay: Inhibition of AURKA at 10 uM; details: values are per cent of control
[43] = biological target: Phosphatidylinositol 4,5-bisphosphate 3-kinase catalytic subunit alpha isoform (Homo sapiens) (UniProt P42336); assay: Inhibition of PIK3CA at 10 uM; values are per cent of control
[44] = biological target: Myosin light chain kinase family member 4 (Homo sapiens) (UniProt Q86YV6); assay: Inhibition of MYLK4 at 10 uM

CCN1CCN(Cc2ccc(NC(=O)c3ccc(C)c(C#Cc4cnc5[nH]ccc5c4)c3)cc2C(F)(F)F)CC1 was tested, and the inhibition [1] was 19%, the residual binding, % of control [2] was 96% and the inhibition [3] was 97%. It also gave a residual binding, % of control [4] of 28%, a residual binding, % of control [5] of 0% and a % of control [6] of 0.1%. It also gave a residual binding, % of control [7] of 0.8%, a residual binding, % of control [8] of 75% and a residual binding, % of control [9] of 0.45%. For the same compound, the residual binding, % of control [10] was 0.35%, the residual binding, % of control [11] was 0.1% and the inhibition [12] was 76%. The level, % of control [13] was 29%, the residual binding, % of control [14] was 30% and the inhibition [15] was 0.2%. It also gave a residual binding, % of control [16] of 0.85%, an inhibition [17] of 11% and an inhibition [18] of 47%. For the same compound, the inhibition [19] was 0.15%, the inhibition [20] was 95% and the residual binding, % of control [21] was 98%. For the same compound, the inhibition [22] was 63%, the inhibition [23] was 100% and the residual binding, % of control [24] was 0%. The inhibition [25] was 100%, the residual binding, % of control [26] was 59% and the inhibition [27] was 100%. It also gave a residual binding, % of control [28] of 0.85%, a residual binding, % of control [29] of 0.15% and an inhibition [30] of 0.8%. For the same compound, the inhibition [31] was 77%, the residual binding, % of control [32] was 0.45% and the inhibition [33] was 67%. It also gave a level, % of control [34] of 0.8%, an inhibition [35] of 53% and a residual binding, % of control [36] of 6.1%. It also gave a residual binding, % of control [37] of 0.05%, a residual binding, % of control [38] of 59% and a residual binding, % of control [39] of 1.8%. For the same compound, the residual binding, % of control [40] was 2%, the residual binding, % of control [41] was 72% and the residual binding, % of control [42] was 97%. For the same compound, the level, % of control [43] was 93% and the inhibition [44] was 40%.
CCN1CCN(Cc2ccc(NC(=O)c3ccc(C)c(C#Cc4cccnc4)c3)cc2C(F)(F)F)CC1 gave an inhibition [1] of 3.6%, a residual binding, % of control [2] of 99% and an inhibition [3] of 88%. For the same compound, the residual binding, % of control [4] was 12%, the residual binding, % of control [5] was 0% and the % of control [6] was 3.7%. For the same compound, the residual binding, % of control [7] was 1.6%, the residual binding, % of control [8] was 89% and the residual binding, % of control [9] was 0.05%. The residual binding, % of control [10] was 11%, the residual binding, % of control [11] was 0% and the inhibition [12] was 68%. For the same compound, the level, % of control [13] was 21%, the residual binding, % of control [14] was 59% and the inhibition [15] was 0%. The residual binding, % of control [16] was 8.8%, the inhibition [17] was 21% and the inhibition [18] was 100%. The inhibition [19] was 0.4%, the inhibition [20] was 72% and the residual binding, % of control [21] was 81%. It also gave an inhibition [22] of 51%, an inhibition [23] of 92% and a residual binding, % of control [24] of 0%. It also gave an inhibition [25] of 100%, a residual binding, % of control [26] of 99% and an inhibition [27] of 89%. It also gave a residual binding, % of control [28] of 0.5%, a residual binding, % of control [29] of 0.4% and an inhibition [30] of 1.6%. It also gave an inhibition [31] of 70%, a residual binding, % of control [32] of 0% and an inhibition [33] of 88%. For the same compound, the level, % of control [34] was 0.9%, the inhibition [35] was 90% and the residual binding, % of control [36] was 8.1%. The residual binding, % of control [37] was 0%, the residual binding, % of control [38] was 75% and the residual binding, % of control [39] was 3.3%. It also gave a residual binding, % of control [40] of 7.4%, a residual binding, % of control [41] of 78% and a residual binding, % of control [42] of 100%. It also gave a level, % of control [43] of 100% and an inhibition [44] of 68%.
